Calls of active or inactive are those of the source. No cut-off for these calls is given here. Starred links: 1 amine or outer side, 2 acyl side, 3 side chain; linkers in the order of their positions; H or OH if unused. Non-standard residues stand in square brackets, D forms with d. Residues, ends and D or L forms follow the SMILES beside them. *: point of attachment. Benzenesulfonyl(4-OMe) = COc1ccc(S(=O)(=O)*)cc1; Benzoyl(4-CO2Me) = COC(=O)c1ccc(C(=O)*)cc1; Benzoyl(4-COOH) = O=C(O)c1ccc(C(=O)*)cc1; Lys(Me3) = C[N+](C)(C)CCCC[C@H](N)C(=O)O; Benzoyl(4-Br) = O=C(c1ccc(Br)cc1)*; Ethylenediamine = C(CN[*:2])N[*:1]; Gly(cPent) = N[C@H](C(=O)O)C1CCCC1; Hydrocinnamoyl = O=C(CCc1ccccc1)*; NBnAla = C[C@H](NCc1ccccc1)C(=O)O; X3 = COC(=O)c1ccc(S(=O)(=O)*)cc1; X6 = O=C(O)c1ccc(S(=O)(=O)*)cc1; Phg = N[C@H](C(=O)O)c1ccccc1; Nicotinoyl = O=C(c1cccnc1)*; Tos = Cc1ccc(S(=O)(=O)*)cc1; X2 = O=C(c1c[nH]c2ccccc12)*; NHCH(CH2OH)2 = OCC(CO)N*; X10 = O=C(Cc1ccccc1Br)*; X7 = O=S(=O)(c1cccnc1)*; Cbz = O=C(OCc1ccccc1)*; PhAc = O=C(Cc1ccccc1)*; Bz = O=C(c1ccccc1)*
Legend:
[1] = target: T1, Chromobox protein homolog 7 (Homo sapiens, UniProt O95931); assay: (§1) Displacement of FITC-labeled H3K27me3 from CBX7 (unknown origin) after 15 mins by fluorescence polarization assay
T1 sequence (O95931 whole entry): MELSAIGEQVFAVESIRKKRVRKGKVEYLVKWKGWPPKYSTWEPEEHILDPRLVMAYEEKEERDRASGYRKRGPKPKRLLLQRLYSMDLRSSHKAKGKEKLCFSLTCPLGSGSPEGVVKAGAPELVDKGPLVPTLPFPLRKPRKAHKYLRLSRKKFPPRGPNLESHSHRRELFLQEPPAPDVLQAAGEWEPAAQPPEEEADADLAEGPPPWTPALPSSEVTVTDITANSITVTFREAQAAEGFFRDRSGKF

[2] = target: T1, Chromobox protein homolog 7; assay: Binding affinity to CBX7 (unknown origin) by isothermal titration calorimetry assay
[3] = target: T2, Chromobox protein homolog 8 (Homo sapiens, UniProt Q9HC52); assay: Binding affinity to CBX8 (unknown origin) by isothermal titration calorimetry assay
T2 sequence (Q9HC52 whole entry): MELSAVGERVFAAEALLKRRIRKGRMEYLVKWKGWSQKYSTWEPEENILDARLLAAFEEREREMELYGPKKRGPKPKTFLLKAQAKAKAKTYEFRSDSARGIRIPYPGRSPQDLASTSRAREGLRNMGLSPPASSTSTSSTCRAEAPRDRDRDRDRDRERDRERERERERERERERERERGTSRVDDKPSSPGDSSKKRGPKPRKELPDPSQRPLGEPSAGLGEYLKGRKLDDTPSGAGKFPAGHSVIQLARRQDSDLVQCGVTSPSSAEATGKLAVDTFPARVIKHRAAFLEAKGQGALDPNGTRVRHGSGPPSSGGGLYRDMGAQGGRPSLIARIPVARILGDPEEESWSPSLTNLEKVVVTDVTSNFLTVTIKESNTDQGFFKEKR

[4] = target: T3, E3 SUMO-protein ligase CBX4 (Homo sapiens, UniProt O00257); assay: Binding affinity to CBX4 (unknown origin) by isothermal titration calorimetry assay
T3 sequence (O00257 whole entry): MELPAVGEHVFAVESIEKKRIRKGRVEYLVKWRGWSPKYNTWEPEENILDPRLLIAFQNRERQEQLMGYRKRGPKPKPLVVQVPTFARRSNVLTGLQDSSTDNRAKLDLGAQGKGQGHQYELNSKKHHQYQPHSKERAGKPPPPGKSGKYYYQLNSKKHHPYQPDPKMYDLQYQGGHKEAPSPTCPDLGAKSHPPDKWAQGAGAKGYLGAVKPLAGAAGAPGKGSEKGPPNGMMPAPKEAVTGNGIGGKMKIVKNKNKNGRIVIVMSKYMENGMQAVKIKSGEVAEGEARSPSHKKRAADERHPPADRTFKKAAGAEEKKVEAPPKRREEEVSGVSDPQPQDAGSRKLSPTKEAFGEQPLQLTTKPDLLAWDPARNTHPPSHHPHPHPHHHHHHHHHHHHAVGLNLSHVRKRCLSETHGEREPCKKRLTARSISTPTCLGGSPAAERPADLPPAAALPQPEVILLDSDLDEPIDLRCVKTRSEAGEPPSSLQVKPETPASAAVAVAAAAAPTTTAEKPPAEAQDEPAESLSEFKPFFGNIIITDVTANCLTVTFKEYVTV

[5] = target: Chromobox protein homolog 1 (Homo sapiens, UniProt P83916); assay: Binding affinity to CBX1 (unknown origin) by isothermal titration calorimetry assay
Chain of Chromobox protein homolog 1 (P83916 whole entry): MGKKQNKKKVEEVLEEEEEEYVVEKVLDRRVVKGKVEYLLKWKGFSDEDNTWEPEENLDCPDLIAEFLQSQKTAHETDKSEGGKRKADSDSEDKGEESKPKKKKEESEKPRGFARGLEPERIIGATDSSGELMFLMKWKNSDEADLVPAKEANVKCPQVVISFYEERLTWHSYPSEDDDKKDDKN

[6] = target: T4, Chromobox protein homolog 7 (Homo sapiens) (UniProt O95931); assay: as §1
T4 sequence (whole entry): T1 sequence (O95931 whole entry)

Row | Compound | IC50 [1] [µM] | also measured
1 | CC(=O)N[C@@H](Cc1ccccc1)C(=O)N[C@@H](C)C(=O)N[C@@H](CC(C)C)C(=O)N[C@@H](CCCC[N+](C)(C)C)C(=O)N[C@H](CO)C(N)=O | 9 | Kd [2]: 5.4 µM; Kd [3]: 15 µM
2 | C[C@H](NC(=O)Cc1ccccc1)C(=O)N[C@H](C(=O)N[C@@H](CCCC[N+](C)(C)C)C(=O)NC(CO)CO)C1CCCC1 | – | Kd [2]: 4.1 µM; Kd [3]: 15 µM
3 | CC(=O)N[C@@H](Cc1ccccc1)C(=O)N[C@@H](C)C(=O)N[C@@H](Cc1ccc(O)cc1)C(=O)N[C@@H](CCCC[N+](C)(C)C)C(=O)N[C@@H](CO)C(N)=O (Ac-FAY[Lys(Me3)]S-NH2) | – | Kd [3]: 12.3 µM
4 | CC(=O)N[C@@H](Cc1ccc(O)cc1)C(=O)N[C@@H](C)C(=O)N[C@@H](CC(C)C)C(=O)N[C@@H](CCCC[N+](C)(C)C)C(=O)N[C@@H](CO)C(N)=O (Ac-YAL[Lys(Me3)]S-NH2) | 8.6 | –
5 | CC(=O)N[C@H](C(=O)N[C@@H](C)C(=O)N[C@@H](CC(C)C)C(=O)N[C@@H](CCCC[N+](C)(C)C)C(=O)N[C@@H](CO)C(N)=O)c1ccccc1 (Ac-[Phg]AL[Lys(Me3)]S-NH2) | 26 | –
6 | CC(C)C[C@H](NC(=O)[C@H](C)NC(=O)[C@H](Cc1ccccc1)NC(=O)c1ccccc1)C(=O)N[C@@H](CCCC[N+](C)(C)C)C(=O)N[C@@H](CO)C(N)=O (Bz-FAL[Lys(Me3)]S-NH2) | 8.8 | –
7 | CC(C)C[C@H](NC(=O)[C@H](C)NC(=O)OCc1ccccc1)C(=O)N[C@@H](CCCC[N+](C)(C)C)C(=O)N[C@@H](CO)C(N)=O (Cbz-AL[Lys(Me3)]S-NH2) | 58 | –
8 | CC(C)C[C@H](NC(=O)[C@H](C)NCc1ccccc1)C(=O)N[C@@H](CCCC[N+](C)(C)C)C(=O)N[C@@H](CO)C(N)=O (H-[NBnAla]L[Lys(Me3)]S-NH2) | > 2000 | –
9 | CC(C)C[C@H](NC(=O)[C@H](C)NC(=O)CCc1ccccc1)C(=O)N[C@@H](CCCC[N+](C)(C)C)C(=O)N[C@@H](CO)C(N)=O (Hydrocinnamoyl-AL[Lys(Me3)]S-NH2) | 26 | –
10 | CC(C)C[C@H](NC(=O)[C@H](C)NC(=O)c1cccnc1)C(=O)N[C@@H](CCCC[N+](C)(C)C)C(=O)N[C@@H](CO)C(N)=O (Nicotinoyl-AL[Lys(Me3)]S-NH2) | 91 | –
11 | CC(C)C[C@H](NC(=O)[C@H](C)NC(=O)Cc1ccccc1)C(=O)N[C@@H](CCCC[N+](C)(C)C)C(=O)N[C@@H](CO)C(N)=O (PhAc-AL[Lys(Me3)]S-NH2) | 23 | –
12 | Cc1ccc(S(=O)(=O)NCC(=O)N[C@@H](C)C(=O)N[C@@H](CC(C)C)C(=O)N[C@@H](CCCC[N+](C)(C)C)C(=O)N[C@@H](CO)C(N)=O)cc1 (Tos-GAL[Lys(Me3)]S-NH2) | 34 | –
13 | COC(=O)c1ccc(S(=O)(=O)N[C@@H](Cc2ccccc2)C(=O)N[C@@H](C)C(=O)N[C@@H](CC(C)C)C(=O)N[C@@H](CCCC[N+](C)(C)C)C(=O)N[C@@H](CO)C(N)=O)cc1 (X3-FAL[Lys(Me3)]S-NH2) | 57 | –
14 | CC(C)C[C@H](NC(=O)[C@H](C)NC(=O)[C@H](Cc1ccccc1)NS(=O)(=O)c1ccc(C(=O)O)cc1)C(=O)N[C@@H](CCCC[N+](C)(C)C)C(=O)N[C@@H](CO)C(N)=O (X6-FAL[Lys(Me3)]S-NH2) | 6.7 | –
15 | CC(C)C[C@H](NC(=O)[C@H](C)NC(=O)CNS(=O)(=O)c1ccc(C(=O)O)cc1)C(=O)N[C@@H](CCCC[N+](C)(C)C)C(=O)N[C@@H](CO)C(N)=O (X6-GAL[Lys(Me3)]S-NH2) | 53 | –
16 | CC(C)C[C@H](NC(=O)[C@H](C)NC(=O)Cc1ccccc1Br)C(=O)N[C@@H](CCCC[N+](C)(C)C)C(=O)N[C@@H](CO)C(N)=O (X10-AL[Lys(Me3)]S-NH2) | 89 | –
17 | COc1ccc(S(=O)(=O)N[C@@H](C)C(=O)N[C@@H](CC(C)C)C(=O)N[C@@H](CCCC[N+](C)(C)C)C(=O)N[C@@H](CO)C(N)=O)cc1 ({Benzenesulfonyl(4-OMe)}-AL[Lys(Me3)]S-NH2) | > 250 | –
18 | CC(C)C[C@H](NC(=O)[C@H](C)NC(=O)[C@H](Cc1ccccc1)NC(=O)c1ccc(Br)cc1)C(=O)N[C@@H](CCCC[N+](C)(C)C)C(=O)N[C@@H](CO)C(N)=O ({Benzoyl(4-Br)}-FAL[Lys(Me3)]S-NH2) | 4.6 | Kd [2]: 0.28 µM; Kd [3]: 1.5 µM
19 | C[C@H](NC(=O)[C@H](Cc1ccccc1)NC(=O)c1ccc(Br)cc1)C(=O)N[C@H](C(=O)N[C@@H](CCCC[N+](C)(C)C)C(=O)NCCN)C1CCCC1 ({Benzoyl(4-Br)}-FA[Gly(cPent)][Lys(Me3)]-Ethylenediamine) | – | Kd [2]: 0.22 µM; Kd [3]: 0.48 µM
20 | COC(=O)c1ccc(C(=O)N[C@@H](Cc2ccccc2)C(=O)N[C@@H](C)C(=O)N[C@@H](CC(C)C)C(=O)N[C@@H](CCCC[N+](C)(C)C)C(=O)N[C@@H](CO)C(N)=O)cc1 ({Benzoyl(4-CO2Me)}-FAL[Lys(Me3)]S-NH2) | 6.3 | –
21 | COC(=O)c1ccc(C(=O)N[C@@H](Cc2ccccc2)C(=O)N[C@@H](C)C(=O)N[C@H](C(=O)N[C@@H](CCCC[N+](C)(C)C)C(=O)NC(CO)CO)C2CCCC2)cc1 ({Benzoyl(4-CO2Me)}-FA[Gly(cPent)][Lys(Me3)]-{NHCH(CH2OH)2}) | – | Kd [2]: 0.2 µM; Kd [3]: 1.89 µM; Kd [4]: 0.29 µM; Kd [5]: > 500 µM
22 | COC(=O)c1ccc(C(=O)N[C@@H](Cc2ccccc2)C(=O)N[C@@H](C)C(=O)N[C@H](C(=O)N[C@@H](CCCC[N+](C)(C)C)C(=O)N[C@@H](CO)C(N)=O)C2CCCC2)cc1 ({Benzoyl(4-CO2Me)}-FA[Gly(cPent)][Lys(Me3)]S-NH2) | – | Kd [2]: 0.2 µM; Kd [3]: 1.78 µM
23 | CC(C)C[C@H](NC(=O)[C@H](C)NC(=O)[C@H](Cc1ccccc1)NC(=O)c1ccc(C(=O)O)cc1)C(=O)N[C@@H](CCCC[N+](C)(C)C)C(=O)N[C@@H](CO)C(N)=O ({Benzoyl(4-COOH)}-FAL[Lys(Me3)]S-NH2) | 6.2 | –
24 | Ac-FALKS-NH2 | – | inhibition [6]: inactive

The next lines start with results.

Row | IC50 [1] [µM] | Compound | also measured
25 | 11 | CC(=O)N[C@@H](Cc1ccccc1)C(=O)N[C@@H](C)C(=O)N[C@@H](CC(C)C)C(=O)N[C@@H](CCCC[N+](C)(C)C)C(=O)N[C@@H](CO)C(N)=O | Kd [2]: 2 µM; Kd [3]: 14.2 µM; Kd [4]: 3.7 µM; Kd [5]: 43 µM
26 | 57 | CC(C)C[C@H](NC(=O)[C@H](C)NC(=O)c1ccccc1)C(=O)N[C@@H](CCCC[N+](C)(C)C)C(=O)N[C@@H](CO)C(N)=O (Bz-AL[Lys(Me3)]S-NH2) | –
27 | 58 | CC(C)C[C@H](NC(=O)[C@H](C)NC(=O)CNC(=O)c1ccccc1)C(=O)N[C@@H](CCCC[N+](C)(C)C)C(=O)N[C@@H](CO)C(N)=O (Bz-GAL[Lys(Me3)]S-NH2) | –
28 | 100 | CC(C)C[C@H](NC(=O)[C@H](C)NC(=O)CNC(=O)Cc1ccccc1)C(=O)N[C@@H](CCCC[N+](C)(C)C)C(=O)N[C@@H](CO)C(N)=O (PhAc-GAL[Lys(Me3)]S-NH2) | –
29 | > 250 | Cc1ccc(S(=O)(=O)N[C@@H](Cc2ccccc2)C(=O)N[C@@H](C)C(=O)N[C@@H](CC(C)C)C(=O)N[C@@H](CCCC[N+](C)(C)C)C(=O)N[C@@H](CO)C(N)=O)cc1 (Tos-FAL[Lys(Me3)]S-NH2) | –
30 | 67 | CC(C)C[C@H](NC(=O)[C@H](C)NC(=O)c1c[nH]c2ccccc12)C(=O)N[C@@H](CCCC[N+](C)(C)C)C(=O)N[C@@H](CO)C(N)=O (X2-AL[Lys(Me3)]S-NH2) | –
31 | > 250 | CC(C)C[C@H](NC(=O)[C@H](C)NS(=O)(=O)c1cccnc1)C(=O)N[C@@H](CCCC[N+](C)(C)C)C(=O)N[C@@H](CO)C(N)=O (X7-AL[Lys(Me3)]S-NH2) | –

From ChEMBL document CHEMBL3233003, “Chromodomain antagonists that target the polycomb-group methyllysine reader protein chromobox homolog 7 (CBX7)” (J Med Chem, 2014)
